# Assays:
# [1] = test system: non-symptomatic M-IR; assay: Non-symptomatic M-IR, DSP vs Nifedipine; format: in vivo, human; settings: for Efficacy (Number) / Obvious Efficacy (Number): n = 52
# Text: 1. Clinical sample. 52 patients were in the treatment group, which included 39 patients with coronary heart disease, and 4 patients with M-IR, and 9 patients with positive results on the exercise test. There were 38 males and 14 females. 52 patients were in the control group, which included 43 patients with coronary heart disease, 6 patients with M-IR, and 3 patients with positive results on the exercise test. There were 34 males and 18 females (Both groups followed the WHO M-IR-Related Heart Disease and Standard established in 1979).
# 2. Method of treatment. DSP was given to the treatment group, 10 tablets/medication, 3 times/day. […] Both medications lasted for 4 weeks, and all medications related to the treatment of M-IR were stopped.
# 3. Result standard. Efficient: Change of ECG ST-T was close to normal; Better: Decreased section ST rose 0.5 mm or more, transverse wave T changed to vertical ones, inverted wave changed 25% or more, conducting resistance was improved; Failure: There was no difference in ECGs before and after treatment.
# [2] = test system: coronary heart disease and angina; assay: Clinical summary: coronary heart disease and angina (Table 1-1); format: in vivo, human; settings: Affiliated Hospital Anhui College of TCM, 46 cases
# Experimental: After DSP came onto the market in China, a large-scale clinical research project was conducted in China. Although different prescriptions were used in different research projects, all conclusions are written according to “Method of DSP clinic study.” All clinical and experimental markers were standardized. A simplified summary of the results is shown below in Table 1-1.
# [3] = test system: angina caused by coronary heart disease; assay: Senior group angina, DSP vs Nifedipine
# Experimental: • 1.1 Subjects. […] Medications were taken for 30 days. Patients in both groups used Yongbaoling spray under their tongues during acute onset of symptoms. […] Onset frequency, duration, number of times Yongbaoling was sprayed each day, 12-lead ECG, blood pressure, heartbeat, normal blood urea, liver and kidneys function, and lipoproteins in blood and blood viscosity both before and after treatment. • 1.4 Statistical analysis. The results were measured by t statistic testing, calculated by x^2 statistic testing. • 2. Confirmation of results. Onset frequency and duration with a decrease of 80% or more was regarded as obvious efficacy. A decrease of 50% or more was regarded as efficacy. A decrease of 50% or less was regarded as a failure. Changes in NST and ΣST before and after treatment were used to observe ECG improvement. NST represented the low-pressure 12-lead numbers in section ST; ΣST represented the sum of all low pressure numbers in section ST of 12-lead. Results
# [4] = clinical results after 30 days, cases (%)
structure (smiles),measurement,setting,value
COC(=O)C1=C(C)NC(C)=C(C(=O)OC)C1c1ccccc1[N+](=O)[O-] [Nifedipine],Efficacy (%),[1]; 1st week,25.0%
same,Efficacy (Number),[1]; 1st week,5
same,Obvious Efficacy (Number),[1]; 1st week,8
same,Efficacy (%),[1]; 2nd week,30.8%
same,Efficacy (Number),[1]; 2nd week,6
same,Obvious Efficacy (Number),[1]; 2nd week,10
same,Efficacy (%),[1]; 3rd week,34.6%
same,Efficacy (Number),[1]; 3rd week,7
same,Obvious Efficacy (Number),[1]; 3rd week,11
same,Efficacy (%),[1]; 4th week,38.5%
same,Efficacy (Number),[1]; 4th week,8
same,Obvious Efficacy (Number),[1]; 4th week,12
same,Clinical efficacy %,[2],Nifedipine(32; 75%;
same,ECG-Efficacy %,[2],43.8%)
same,Side-effects: felt pain,"[3]; 20 patients, 30 days",3 patients
same,Side-effects: slow heartbeat,"[3]; 20 patients, 30 days",1 patients
same,Side-effects: swollen ankles,"[3]; 20 patients, 30 days",2 patients
same,NST,[3]; after treatment,3.90 ± 1.13
same,Number of Yongbaoling sprays per day,[3]; after treatment,2.2 ± 0.8
same,NST,[3]; before treatment,4.20 ± 1.25
same,Number of Yongbaoling sprays per day,[3]; before treatment,3.21 ± 1.1
same,"Total efficacy, %",[3]; clinical results after 30 days,60%
same,Efficacy,[3]; [4],4 (20.00) %
same,Failure,[3]; [4],8 (40.00) %
same,Obvious Efficacy,[3]; [4],8 (40.00) %

# Source: patent US8486464B2, “Herbal composition for angina pectoris, method to prepare same and uses thereof” (Tasly Pharmaceutical Group Co. Ltd., priority 2000, dated 2013)
